For one test, the system named is IL8. The test can be described thus: inhibitors of NFkB activation in CF airway cells, SAR follow-up, KKLEB cells, panel, IL8 HTRF, NFkB-GFP (AID 651592).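 Further: immortalized cystic fibrosis airway epithelial KKLEB cells with an NF-kB GFP reporter.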 To be noted: PAF/TNFa-induced NFkB-GFP / IL8 HTRF, mean of runs, mean IC50 across panel replicates.
In test [1] the target is Interleukin-8 (Homo sapiens) (UniProt P10145). The description is as above. To be noted: PAF/TNFa-induced NFkB-GFP / IL8 HTRF.
Assay in test [2]: as above
To be noted: PAF/TNFa-induced NFkB-GFP / IL8 HTRF, CF-PAF assay. A general note: Time-resolved FRET reads energy transfer from a long-lived donor to a nearby acceptor.

The mark [3] stands for this setting: mean of runs, mean IC50 across panel replicates.

Sequence of Interleukin-8 (Homo sapiens) (P10145 whole entry, looked up): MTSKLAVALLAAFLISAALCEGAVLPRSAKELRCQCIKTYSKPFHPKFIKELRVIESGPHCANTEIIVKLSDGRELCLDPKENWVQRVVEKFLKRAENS

As a reminder, the IC50 is the concentration that gives 50% inhibition. A low value points to higher potency. In the case of `O=C(Nc1ccc(N2CCN(C(=O)c3ccc(F)cc3)CC2)cc1)c1cccnc1`, the IC50 is above 66 µM with IL8 (PAF-induced); above 66 µM in the test with IL8 (TNFa-induced); above 66 µM in test [1] (IL8, PAF-induced, run 1); above 66 µM in test [1] (IL8, PAF-induced, run 2); above 66 µM in test [1] (IL8, PAF-induced, run 3); above 66 µM in test [1] (IL8, PAF-induced, run 4). Further, the IC50 in test [1] (IL8, PAF-induced, run 5) was above 66 µM; in test [1] (IL8, PAF-induced, run 6) it was above 66 µM; in test [1] (IL8, TNFa-induced, run 1), above 66 µM; in test [1] (IL8, TNFa-induced, run 2), above 66 µM; in test [1] (IL8, TNFa-induced, run 3) it was above 66 µM; in test [1] (IL8, TNFa-induced, run 4) it was above 66 µM. In addition, the IC50 in test [1] (IL8, TNFa-induced, run 5) is above 66 µM; in test [1] (IL8, TNFa-induced, run 6), above 66 µM; in test [2] (setting [3]), 41.4 µM; in test [2] (run 1), 38.3 µM; in test [2] (run 2), 39.4 µM; in test [2] (run 3) it was 46.4 µM. Besides, the IC50 in test [2] (run 4), in test [2] (run 5) and in test [2] (run 6) was above 66 µM each time.
For the compound `O=C(Nc1ccc(N2CCN(C(=O)c3ccc(F)cc3)CC2)cc1)c1ccccn1`, the IC50 was above 66 µM in the test with IL8 (PAF-induced); above 66 µM with IL8 (TNFa-induced); above 66 µM in test [1] (IL8, PAF-induced, run 1); above 66 µM in test [1] (IL8, PAF-induced, run 2); above 66 µM in test [1] (IL8, PAF-induced, run 3); above 66 µM in test [1] (IL8, PAF-induced, run 4). For the same compound, the IC50 is above 66 µM in test [1] (IL8, PAF-induced, run 5); above 66 µM in test [1] (IL8, PAF-induced, run 6); above 66 µM in test [1] (IL8, TNFa-induced, run 1); above 66 µM in test [1] (IL8, TNFa-induced, run 2); above 66 µM in test [1] (IL8, TNFa-induced, run 3); above 66 µM in test [1] (IL8, TNFa-induced, run 4). Besides, the IC50 in test [1] (IL8, TNFa-induced, run 5) was above 66 µM; in test [1] (IL8, TNFa-induced, run 6), above 66 µM; in test [2] (setting [3]) it was above 66 µM; in test [2] (run 1), above 66 µM; in test [2] (run 2) it was above 66 µM; in test [2] (run 3), above 66 µM. Moreover, the IC50 in test [2] (run 4), in test [2] (run 5) and in test [2] (run 6) was above 66 µM throughout.
For the compound `O=C(Nc1ccc(N2CCN(C(=O)c3ccccc3F)CC2)cc1)c1ccccn1`, the IC50 in the test with IL8 (PAF-induced) was above 66 µM; in the test on IL8 (TNFa-induced), above 66 µM; in test [1] (IL8, PAF-induced, run 1), above 66 µM; in test [1] (IL8, PAF-induced, run 2), above 66 µM; in test [1] (IL8, PAF-induced, run 3) it was above 66 µM; in test [1] (IL8, PAF-induced, run 4), above 66 µM. Also, the IC50 in test [1] (IL8, PAF-induced, run 5) is above 66 µM; in test [1] (IL8, PAF-induced, run 6), above 66 µM; in test [1] (IL8, TNFa-induced, run 1), above 66 µM; in test [1] (IL8, TNFa-induced, run 2) it was above 66 µM; in test [1] (IL8, TNFa-induced, run 3), above 66 µM; in test [1] (IL8, TNFa-induced, run 4) it was above 66 µM. Also, the IC50 in test [1] (IL8, TNFa-induced, run 5) was above 66 µM; in test [1] (IL8, TNFa-induced, run 6) it was above 66 µM; in test [2] (setting [3]) it was 45.7 µM; in test [2] (run 1), 32.5 µM; in test [2] (run 2) it was 40.3 µM; in test [2] (run 3) it was 64.3 µM. The IC50 in test [2] (run 4), in test [2] (run 5) and in test [2] (run 6) was above 66 µM throughout.
With `O=C(Nc1ccc(N2CCN(C(=O)c3ccccc3Cl)CC2)cc1)c1ccccn1`, the IC50 in the test on IL8 (PAF-induced) was 19 µM; in the test with IL8 (TNFa-induced) it was above 66 µM; in test [1] (IL8, PAF-induced, run 1) it was above 66 µM; in test [1] (IL8, PAF-induced, run 2) it was 12.5 µM; in test [1] (IL8, PAF-induced, run 3), 19.7 µM; in test [1] (IL8, PAF-induced, run 4) it was 3.66 µM. Besides, the IC50 in test [1] (IL8, PAF-induced, run 5) was 5.84 µM; in test [1] (IL8, PAF-induced, run 6) it was 53.2 µM; in test [1] (IL8, TNFa-induced, run 1), above 66 µM; in test [1] (IL8, TNFa-induced, run 2), above 66 µM; in test [1] (IL8, TNFa-induced, run 3), above 66 µM; in test [1] (IL8, TNFa-induced, run 4) it was above 66 µM. Further, the IC50 in test [1] (IL8, TNFa-induced, run 5) is above 66 µM; in test [1] (IL8, TNFa-induced, run 6), above 66 µM; in test [2] (setting [3]) it was 39.5 µM; in test [2] (run 1), 8.15 µM; in test [2] (run 2), 14.4 µM; in test [2] (run 3), 16.5 µM. Further, the IC50 in test [2] (run 4), in test [2] (run 5) and in test [2] (run 6) was above 66 µM throughout.
On to `Cc1ccc(NCc2cc3c(C(C)(C)C)nn(-c4ccccc4)c3[nH]c2=O)cc1`, for which the IC50 in the test on IL8 (PAF-induced) is 4.49 µM; in the test on IL8 (TNFa-induced), above 66 µM; in test [1] (IL8, PAF-induced, run 1) it was 2.68 µM; in test [1] (IL8, PAF-induced, run 2), 3.24 µM; in test [1] (IL8, PAF-induced, run 3) it was 3.47 µM; in test [1] (IL8, PAF-induced, run 4), 3.84 µM. Further, the IC50 in test [1] (IL8, PAF-induced, run 5) was 5.83 µM; in test [1] (IL8, PAF-induced, run 6), 7.9 µM; in test [1] (IL8, TNFa-induced, run 1) it was above 66 µM; in test [1] (IL8, TNFa-induced, run 2) it was above 66 µM; in test [1] (IL8, TNFa-induced, run 3), above 66 µM; in test [1] (IL8, TNFa-induced, run 4), above 66 µM. Also, the IC50 in test [1] (IL8, TNFa-induced, run 5) is above 66 µM; in test [1] (IL8, TNFa-induced, run 6), above 66 µM; in test [2] (setting [3]), 39.7 µM; in test [2] (run 1), above 66 µM; in test [2] (run 2), 26 µM; in test [2] (run 3), 43.2 µM. Further, the IC50 in test [2] (run 4) was above 66 µM; in test [2] (run 5) it was 13.4 µM; in test [2] (run 6), 23.8 µM.
`O=C(Nc1ccc(N2CCN(C(=O)c3ccccc3F)CC2)cc1)c1cccc(Br)c1`: the IC50 with IL8 (PAF-induced) is above 66 µM; in the test on IL8 (TNFa-induced), 56 µM; in test [1] (IL8, PAF-induced, run 1), above 66 µM; in test [1] (IL8, PAF-induced, run 2) it was above 66 µM; in test [1] (IL8, PAF-induced, run 3), above 66 µM; in test [1] (IL8, PAF-induced, run 4), above 66 µM. For the same compound, the IC50 is above 66 µM in test [1] (IL8, PAF-induced, run 5); above 66 µM in test [1] (IL8, PAF-induced, run 6); above 66 µM in test [1] (IL8, TNFa-induced, run 1); above 66 µM in test [1] (IL8, TNFa-induced, run 2); above 66 µM in test [1] (IL8, TNFa-induced, run 3); above 66 µM in test [1] (IL8, TNFa-induced, run 4). Also, the IC50 in test [1] (IL8, TNFa-induced, run 5) was above 66 µM; in test [1] (IL8, TNFa-induced, run 6), 6.25 µM; in test [2] (setting [3]), 42.6 µM; in test [2] (run 1), 18.1 µM; in test [2] (run 2), 18.3 µM; in test [2] (run 3), 21.5 µM. The IC50 in test [2] (run 4), in test [2] (run 5) and in test [2] (run 6) was above 66 µM each time.
Turning to `O=C(Nc1ccc(N2CCN(C(=O)c3ccccc3Cl)CC2)cc1)c1cc(Br)cc(Br)c1`, the IC50 was above 66 µM in the test on IL8 (PAF-induced); above 66 µM in the test with IL8 (TNFa-induced); above 66 µM in test [1] (IL8, PAF-induced, run 1); above 66 µM in test [1] (IL8, PAF-induced, run 2); above 66 µM in test [1] (IL8, PAF-induced, run 3); above 66 µM in test [1] (IL8, PAF-induced, run 4). For the same compound, the IC50 in test [1] (IL8, PAF-induced, run 5) is above 66 µM; in test [1] (IL8, PAF-induced, run 6), above 66 µM; in test [1] (IL8, TNFa-induced, run 1) it was above 66 µM; in test [1] (IL8, TNFa-induced, run 2), above 66 µM; in test [1] (IL8, TNFa-induced, run 3), above 66 µM; in test [1] (IL8, TNFa-induced, run 4) it was above 66 µM. The IC50 is above 66 µM in test [1] (IL8, TNFa-induced, run 5); above 66 µM in test [1] (IL8, TNFa-induced, run 6); above 66 µM in test [2] (setting [3]); above 66 µM in test [2] (run 1); above 66 µM in test [2] (run 2); above 66 µM in test [2] (run 3). For the same compound, the IC50 in test [2] (run 4), in test [2] (run 5) and in test [2] (run 6) was above 66 µM each time.
Consider `O=C(Nc1ccc(N2CCN(C(=O)c3ccccc3)CC2)cc1)c1ccncc1`, for which the IC50 in the test with IL8 (PAF-induced) is 55.8 µM; with IL8 (TNFa-induced) it was above 66 µM; in test [1] (IL8, PAF-induced, run 1), above 66 µM; in test [1] (IL8, PAF-induced, run 2) it was above 66 µM; in test [1] (IL8, PAF-induced, run 3) it was 4.58 µM; in test [1] (IL8, PAF-induced, run 4), above 66 µM. In addition, the IC50 in test [1] (IL8, PAF-induced, run 5) is above 66 µM; in test [1] (IL8, PAF-induced, run 6), above 66 µM; in test [1] (IL8, TNFa-induced, run 1) it was above 66 µM; in test [1] (IL8, TNFa-induced, run 2), above 66 µM; in test [1] (IL8, TNFa-induced, run 3), above 66 µM; in test [1] (IL8, TNFa-induced, run 4), above 66 µM. Also, the IC50 in test [1] (IL8, TNFa-induced, run 5) is above 66 µM; in test [1] (IL8, TNFa-induced, run 6), above 66 µM; in test [2] (setting [3]), 39.7 µM; in test [2] (run 1), 32.7 µM; in test [2] (run 2) it was 38.2 µM; in test [2] (run 3), 48.1 µM. For the same compound, the IC50 in test [2] (run 4), in test [2] (run 5) and in test [2] (run 6) was above 66 µM throughout.
